From US20180071317A1, “USE OF AGENTS THAT ALTER THE PERITUMORAL ENVIRONMENT FOR THE TREATMENT OF CANCER” (SERVICIO ANDALUZ DE SALUD, priority 2011, published 2018)

Experiments:
Format in all cases: cell-based
[1] = test system: fibroblasts (PHF) co-cultured with tumor cells of human colon adenocarcinoma (SW-403); assay: Marker expression (IHC) in PHF co-cultured with SW-403 tumor cells; details: co-culture with SW-403; SP 1 μM; 48 h
Protocol: All cultures were maintained 48 hours, following which the same cells were included in paraffin blocks for subsequent analysis of the expression of different markers by immunohistochemistry (see Example 1). The primary antibodies used to perform immunohistochemical assays and their concentration are detailed in Example 2. All experiments were carried out sixfold. Analyzed markers in fibroblast cells (stromal cells) were: TGF-α, TGF-β1, TGF-β2, TGF-β3, SPARC, MMP-3, MMP-7, MMP-9, MMP-11, MMP-13 and MMP-14.

[2] = test system: macrophages in co-culture with cells isolated from primary human tumors; assay: Marker expression (IHC) in macrophages co-cultured with primary human tumor cells (colon, breast, ovarian, lung carcinoma, melanoma); details: SP 1 μM;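 also: macrophages came from pleural or peritoneal washings of the patient who also supplied the tumor cells, and both were co-cultured on fresh blood plasma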
Protocol: To check that the interaction of tumor cells obtained directly from primary human immune cell/inflammatory (macrophages) cells, obtained from the patient stimulate secretion of substances by these macrophages recognized as important in survival of both cell types and in the progression of tumor cells, co-cultures were performed on fresh blood plasma, immune cell/inflammatory (macrophages) with tumor cells derived from primary tumors. All obtained from the same patient, to build an experimental model similar to human physiology.
Macrophages were obtained from washing or pleural or peritoneal from the same patient from which the primary tumor cells were obtained in each case.

[3] = test system: fibroblasts (PHF) co-cultured with tumor cells of human gastric adenocarcinoma (23132/87); assay: Marker expression (IHC) in PHF co-cultured with 23132/87 tumor cells; details: co-culture with 23132/87; SP 1 μM; 48 h;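 also: cultures grown in fresh plasma from a healthy human donor, values give the percentage of PHF fibroblasts positive for the marker, each experiment run in six replicates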
[4] = test system: leukocyte cells (mono and polymorphonuclear) in co-culture with cells isolated from primary human tumors; assay: Marker expression (IHC) in leukocytes co-cultured with primary human tumor cells (colon, pancreatic, lung carcinoma, glioma, melanoma); details: SP 1 μM;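 also: tumor cells and leukocytes came from the same patients, co-culture contents were paraffin-embedded for immunohistochemistry with antibodies to TGF-β2 or NF-kB, leukocytes cultured alone served as control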
Protocol: To check that the interaction of the human primary tumor cells with cells of the immune/inflammatory (mono and polymorphonuclear leukocytes) cells, stimulates the secretion of substances of importance for survival and tumor progression, cultures were carried out using sets of immune cells/inflammatory (mono and polymorphonuclear leukocytes) with tumor cells obtained directly from primary human tumors of the same patients.
The same method described in Example 7 and 9 was used to obtain tumor cells from primary human tumors. Similarly cultured immune cells/inflammatory (mono and polymorphonuclear leukocytes) were used as control and secondly, cultured tumor cells isolated from patients in the presence of immune cells/inflammatory (mono and polymorphonuclear leukocytes).
Then, paraffin blocks were prepared with the contents of each of the groups mentioned previously for expression studies using immunohistochemistry. On this occasion, in order to identify the secretion of substances with importance for the survival and progression of tumor the following markers were analyzed: TGF-β2 (SAB4502956) and NF-kB (SAB4501992) using specific antibodies against them. All antibodies used were rabbit polyclonal antibodies obtained from Sigma Aldrich and were used at a concentration of 1/1000. Immunohistochemical techniques were performed and evaluated as described in previous examples.

[5] = co-culture with cells isolated from breast carcinoma
[6] = co-culture with cells isolated from colon carcinoma
[7] = co-culture with cells isolated from lung carcinoma
[8] = co-culture with cells isolated from melanoma
[9] = co-culture with cells isolated from ovarian carcinoma
[10] = co-culture with cells isolated from glioma
[11] = co-culture with cells isolated from pancreatic carcinoma

## CSCC[C@H](NC(=O)[C@H](CC(C)C)NC(=O)CNC(=O)[C@H](Cc1ccccc1)NC(=O)[C@H](Cc1ccccc1)NC(=O)[C@H](CCC(N)=O)NC(=O)[C@H](CCC(N)=O)NC(=O)[C@@H]1CCCN1C(=O)[C@H](CCCCN)NC(=O)[C@@H]1CCCN1C(=O)[C@@H](N)CCCNC(=N)N)C(N)=O [SP]
[1]
  PHF cells expressing MMP-3: 46.4 ± 1.9%
  PHF cells expressing MMP-7: 53.1 ± 2.2%
  PHF cells expressing MMP-9: 55.7 ± 1.6%
  PHF cells expressing MMP-11: 26.4 ± 2.6%
  PHF cells expressing MMP-13: 46.5 ± 3.7%
  PHF cells expressing MMP-14: 51.3 ± 3.6%
  PHF cells expressing SPARC: 48 ± 1.6%
  PHF cells expressing TGF-α: 42.5 ± 1%
  PHF cells expressing TGF-β1: 34.3 ± 1.2%
  PHF cells expressing TGF-β2: 42.5 ± 1.5%
  PHF cells expressing TGF-β3: 44 ± 1.9%
[2]; [5]
  Percentage of macrophages which expressed EGF: 41.6 ± 4.2%
  Percentage of macrophages which expressed MMP-9: 39.5 ± 3.2%
  Percentage of macrophages which expressed VEGF: 37.4 ± 4.2%
[2]; [6]
  Percentage of macrophages which expressed EGF: 41.4 ± 4.2%
  Percentage of macrophages which expressed MMP-9: 39.5 ± 3.5%
  Percentage of macrophages which expressed VEGF: 38.5 ± 2.9%
[2]; [7]
  Percentage of macrophages which expressed EGF: 38.4 ± 2.9%
  Percentage of macrophages which expressed MMP-9: 39.4 ± 3.7%
  Percentage of macrophages which expressed VEGF: 37.4 ± 4.2%
[2]; [8]
  Percentage of macrophages which expressed EGF: 41.9 ± 3.2%
  Percentage of macrophages which expressed MMP-9: 39.5 ± 5.3%
  Percentage of macrophages which expressed VEGF: 35.4 ± 4.4%
[2]; [9]
  Percentage of macrophages which expressed EGF: 41.5 ± 4.2%
  Percentage of macrophages which expressed MMP-9: 39.5 ± 3.2%
  Percentage of macrophages which expressed VEGF: 37.4 ± 4%
[3]
  PHF cells expressing MMP-3: 43.4 ± 1.7%
  PHF cells expressing MMP-7: 56.1 ± 2.8%
  PHF cells expressing MMP-9: 52.3 ± 1.4%
  PHF cells expressing MMP-11: 27.4 ± 2.8%
  PHF cells expressing MMP-13: 45 ± 3.5%
  PHF cells expressing MMP-14: 49.2 ± 4.5%
  PHF cells expressing SPARC: 47 ± 1.2%
  PHF cells expressing TGF-α: 32.4 ± 1.1%
  PHF cells expressing TGF-β1: 33.5 ± 1.1%
  PHF cells expressing TGF-β2: 40.5 ± 1.1%
  PHF cells expressing TGF-β3: 41 ± 1.56%
[4]; [6]
  Percentage of mononuclear leukocytes cells which expressed NF-kB: 47.5 ± 4.6%
  Percentage of mononuclear leukocytes cells which expressed TGF-β: 36.5 ± 3.5%
  Percentage of polymorphonuclear leukocytes cells which expressed NF-kB: 36.6 ± 4.7%
  Percentage of polymorphonuclear leukocytes cells which expressed TGF-β: 45.8 ± 3.5%
[4]; [10]
  Percentage of mononuclear leukocytes cells expressing NF-kB: 41.6 ± 4.1%
  Percentage of mononuclear leukocytes cells expressing TGF-β: 41.7 ± 3.4%
  Percentage of polymorphonuclear leukocytes cells expressing NF-kB: 39.4 ± 4.2%
  Percentage of polymorphonuclear leukocytes cells expressing TGF-β: 39.7 ± 3.3%
[4]; [7]
  Percentage of mononuclear leukocytes cells which expressed NF-kB: 41.6 ± 4.2%
  Percentage of mononuclear leukocytes cells which expressed TGF-β: 42.7 ± 3.3%
  Percentage of polymorphonuclear leukocytes cells which expressed NF-kB: 35.5 ± 4.2%
  Percentage of polymorphonuclear leukocytes cells which expressed TGF-β: 38.7 ± 3.3%
[4]; [8]
  Percentage of mononuclear leukocytes cells which expressed NF-kB: 51.7 ± 5.3%
  Percentage of mononuclear leukocytes cells which expressed TGF-β: 49.6 ± 4.2%
  Percentage of polymorphonuclear leukocytes cells which expressed NF-kB: 56.6 ± 4.6%
  Percentage of polymorphonuclear leukocytes cells which expressed TGF-β: 54.5 ± 3.5%
[4]; [11]
  Percentage of mononuclear leukocytes cells which expressed TGF-β: 39.5 ± 4.5%
  Percentage of polymorphonuclear leukocytes cells which expressed NF-kB: 35.4 ± 4.2%
  Percentage of polymorphonuclear leukocytes cells which expressed TGF-β: 36.5 ± 3.1%
